Results reported in patent US8178506B2, “Oligomeric compounds and compositions for use in modulation of small non-coding RNAs” (Regulus Therapeutics Inc., priority 2003, dated 2012).
In the oligonucleotide strings, read from the 5' end, every base follows the letter of its sugar. An asterisk marks phosphorothioate; unmarked linkages are phosphodiester. Other units and linkages are bracketed, terminal groups are in braces. A string of capitals states the bases alone. e = 2'-O-(2-methoxyethyl) (MOE); [5mC] = 5-methylcytosine; d = 2'-deoxy (DNA)

Legend:
Assay type in all cases: cell-based, human
[1] = system: HSL; assay: HSL mRNA expression in adipocytes (real-time PCR); details: differentiating adipocytes transfected with oligomeric compound
[2] = system: Glut4; assay: Glut4 mRNA expression in adipocytes (real-time PCR); details: differentiating adipocytes transfected with oligomeric compound
[3] = system: aP2; assay: aP2 mRNA expression in adipocytes (real-time PCR); details: differentiating adipocytes transfected with oligomeric compound; for aP2 mRNA: Table 75
[4] = system: adipocytes; assay: Triglyceride accumulation assay in adipocytes; details: differentiating adipocytes transfected with oligomeric compound
[5] = system: PPARγ; assay: PPARγ mRNA expression in adipocytes (real-time PCR); details: differentiating adipocytes transfected with oligomeric compound

Substance | HSL mRNA [1] | GLUT4 mRNA [2] | AP2 mRNA [3] | TG (triglyceride accumulation) [4] | PPAR gamma mRNA [5] | HSL mRNA ([1]; Table 75) | GLUT4 mRNA ([2]; Table 75) | aP2 mRNA [3] | TG (triglyceride accumulation) ([4]; Table 75) | PPAR gamma mRNA ([5]; Table 75)
328340 (eT*eA*eA*eT*eA*dT*dA*dT*dA*dT*dT*dT*d[5mC]*dA*d[5mC]*eT*eA*e[5mC]*eG*e[5mC]) [compound 328340] | 130 percentage of untreated control (UTC) | 112 percentage of untreated control (UTC) | 85 percentage of untreated control (UTC) | 76 percentage of untreated control (UTC) | 110 percentage of untreated control (UTC) | – | – | – | – | –
340343 (antisense ACAGGAGUCUGAGCAUUUGA; all 2'-MOE, all phosphorothioate, methylation of C and T or U not given here) [compound 340343] | – | – | – | – | – | 46 percentage of untreated control (UTC) | 33 percentage of untreated control (UTC) | 60 percentage of untreated control (UTC) | 35 percentage of untreated control (UTC) | 59 percentage of untreated control (UTC)
340352 (antisense CACAAGAUCGGAUCUACGGGUU; all 2'-MOE, all phosphorothioate, methylation of C and T or U not given here) [compound 340352] | – | – | – | – | – | 123 percentage of untreated control (UTC) | 97 percentage of untreated control (UTC) | 107 percentage of untreated control (UTC) | 110 percentage of untreated control (UTC) | 102 percentage of untreated control (UTC)
340354 (antisense UCAGACCGAGACAAGUGCAAUG; all 2'-MOE, all phosphorothioate, methylation of C and T or U not given here) [compound 340354] | – | – | – | – | – | 56 percentage of untreated control (UTC) | 61 percentage of untreated control (UTC) | 72 percentage of untreated control (UTC) | 64 percentage of untreated control (UTC) | 74 percentage of untreated control (UTC)
340356 (antisense CUCAAUAGACUGUGAGCUCCUU; all 2'-MOE, all phosphorothioate, methylation of C and T or U not given here) [compound 340356] | – | – | – | – | – | 59 percentage of untreated control (UTC) | 54 percentage of untreated control (UTC) | 73 percentage of untreated control (UTC) | 43 percentage of untreated control (UTC) | 62 percentage of untreated control (UTC)
340358 (antisense CAGCUAUGCCAGCAUCUUGCC; all 2'-MOE, all phosphorothioate, methylation of C and T or U not given here) [compound 340358] | – | – | – | – | – | 24 percentage of untreated control (UTC) | 21 percentage of untreated control (UTC) | 47 percentage of untreated control (UTC) | 23 percentage of untreated control (UTC) | 42 percentage of untreated control (UTC)
340360 (antisense GCAACUUAGUAAUGUGCAAUA; all 2'-MOE, all phosphorothioate, methylation of C and T or U not given here) [compound 340360] | – | – | – | – | – | 102 percentage of untreated control (UTC) | 91 percentage of untreated control (UTC) | 102 percentage of untreated control (UTC) | 106 percentage of untreated control (UTC) | 96 percentage of untreated control (UTC)
341791 (antisense GCUUCCAGUCGAGGAUGUUUACA; all 2'-MOE, all phosphorothioate, methylation of C and T or U not given here) [compound 341791] | – | – | – | – | – | 72 percentage of untreated control (UTC) | 47 percentage of untreated control (UTC) | 80 percentage of untreated control (UTC) | 50 percentage of untreated control (UTC) | 75 percentage of untreated control (UTC)
341795 (antisense AACCAAUGUGCAGACUACUGUA; all 2'-MOE, all phosphorothioate, methylation of C and T or U not given here) [compound 341795] | – | – | – | – | – | 74 percentage of untreated control (UTC) | 55 percentage of untreated control (UTC) | 76 percentage of untreated control (UTC) | 57 percentage of untreated control (UTC) | 74 percentage of untreated control (UTC)
341796 (antisense UCAUACAGCUAGAUAACCAAAGA; all 2'-MOE, all phosphorothioate, methylation of C and T or U not given here) [compound 341796] | – | – | – | – | – | 67 percentage of untreated control (UTC) | 58 percentage of untreated control (UTC) | 74 percentage of untreated control (UTC) | 59 percentage of untreated control (UTC) | 66 percentage of untreated control (UTC)
341797 (antisense ACAAGUGCCUUCACUGCAGU; all 2'-MOE, all phosphorothioate, methylation of C and T or U not given here) [compound 341797] | – | – | – | – | – | 29 percentage of untreated control (UTC) | 17 percentage of untreated control (UTC) | 45 percentage of untreated control (UTC) | 20 percentage of untreated control (UTC) | 50 percentage of untreated control (UTC)
341798 (antisense GCAUUAUUACUCACGGUACGA; all 2'-MOE, all phosphorothioate, methylation of C and T or U not given here) [compound 341798] | – | – | – | – | – | 77 percentage of untreated control (UTC) | 55 percentage of untreated control (UTC) | 84 percentage of untreated control (UTC) | 62 percentage of untreated control (UTC) | 70 percentage of untreated control (UTC)
341799 (antisense ACCUAAUAUAUCAAACAUAUCA; all 2'-MOE, all phosphorothioate, methylation of C and T or U not given here) [compound 341799] | – | – | – | – | – | 103 percentage of untreated control (UTC) | 89 percentage of untreated control (UTC) | 101 percentage of untreated control (UTC) | 98 percentage of untreated control (UTC) | 89 percentage of untreated control (UTC)
344268 (antisense ACACAAAUUCGGUUCUACAGGG; all 2'-MOE, all phosphorothioate, methylation of C and T or U not given here) [compound 344268] | – | – | – | – | – | 44 percentage of untreated control (UTC) | 22 percentage of untreated control (UTC) | 46 percentage of untreated control (UTC) | 57 percentage of untreated control (UTC) | 53 percentage of untreated control (UTC)
344269 (antisense UAACCGAUUUCAAAUGGUGCUA; all 2'-MOE, all phosphorothioate, methylation of C and T or U not given here) [compound 344269] | – | – | – | – | – | 35 percentage of untreated control (UTC) | 28 percentage of untreated control (UTC) | 41 percentage of untreated control (UTC) | 42 percentage of untreated control (UTC) | 48 percentage of untreated control (UTC)
344275 (antisense UCUAGUGGUCCUAAACAUUUCA; all 2'-MOE, all phosphorothioate, methylation of C and T or U not given here) [compound 344275] | – | – | – | – | – | 39 percentage of untreated control (UTC) | 21 percentage of untreated control (UTC) | 36 percentage of untreated control (UTC) | 36 percentage of untreated control (UTC) | 46 percentage of untreated control (UTC)
344276 (antisense CAGGCAUAGGAUGACAAAGGGAA; all 2'-MOE, all phosphorothioate, methylation of C and T or U not given here) [compound 344276] | – | – | – | – | – | 68 percentage of untreated control (UTC) | 49 percentage of untreated control (UTC) | 72 percentage of untreated control (UTC) | 66 percentage of untreated control (UTC) | 72 percentage of untreated control (UTC)
344277 (antisense AAUACAUACUUCUUUACAUUCCA; all 2'-MOE, all phosphorothioate, methylation of C and T or U not given here) [compound 344277] | – | – | – | – | – | 57 percentage of untreated control (UTC) | 45 percentage of untreated control (UTC) | 61 percentage of untreated control (UTC) | 75 percentage of untreated control (UTC) | 68 percentage of untreated control (UTC)
344338 (antisense AUGCCCUUUUAACAUUGCACUG; all 2'-MOE, all phosphorothioate, methylation of C and T or U not given here) [compound 344338] | – | – | – | – | – | 89 percentage of untreated control (UTC) | 66 percentage of untreated control (UTC) | 86 percentage of untreated control (UTC) | 103 percentage of untreated control (UTC) | 91 percentage of untreated control (UTC)
